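96-well plates; 48 h exposure; 5 concentrations. Endpoints by linear interpolation between flanking doses. Not reached: highest tested concentration assigned. The concentration for 50% growth inhibition is given as GI50.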 The source made the active and inactive calls. No stated cut-off is given here; in the data, active = GI50 up to about 1.1 µM and inactive = higher.
What was measured:
Assay in all cases: NCI-60 cell line screen, 48 h
Malme-3M = test system: Malme-3M
HOP-62 = test system: HOP-62
M14 = test system: M14
K562 = test system: K562
TK-10 = test system: TK-10
OVCAR-5 = test system: OVCAR-5
SK-MEL-28 = test system: SK-MEL-28
A498 = test system: A498
SF-539 = test system: SF-539
IGROV-1 = test system: IGROV-1
HT-29 = test system: HT-29
HOP-92 = test system: HOP-92
NCI-H522 = test system: NCI-H522
DU-145 = test system: DU-145
BT-549 = test system: BT-549
EKVX = test system: EKVX
SN12C = test system: SN12C
COLO 205 = test system: COLO 205
SNB-19 = test system: SNB-19
Hs-578T = test system: Hs-578T

SMILES	GI50 (Malme-3M)	GI50 (HOP-62)	GI50 (M14)	GI50 (K562)	GI50 (TK-10)	GI50 (OVCAR-5)	GI50 (SK-MEL-28)	GI50 (A498)	GI50 (SF-539)	GI50 (IGROV-1)	GI50 (HT-29)	GI50 (HOP-92)	GI50 (NCI-H522)	GI50 (DU-145)	GI50 (BT-549)	GI50 (EKVX)	GI50 (SN12C)	GI50 (COLO 205)	GI50 (SNB-19)	GI50 (Hs-578T)
O=C(O)[C@H](CCC[C@H]1C(=O)O[C@H](c2ccccc2)[C@H](c2ccccc2)N1C(=O)OCc1ccccc1)N[C@@H](c1ccccc1)[C@H](O)c1ccccc1	21.2 µM (inactive)	19 µM (inactive)	> 100 µM (inactive)	36.8 µM (inactive)	40.7 µM (inactive)	38.4 µM (inactive)	19.8 µM (inactive)	28 µM (inactive)	18.6 µM (inactive)	42.8 µM (inactive)	28.6 µM (inactive)	22.3 µM (inactive)	15.5 µM (inactive)	> 100 µM (inactive)	27 µM (inactive)	38.6 µM (inactive)	20.7 µM (inactive)	30.8 µM (inactive)	30.3 µM (inactive)	25.4 µM (inactive)
Cc1ccc(NC(Nc2ccc(C)cc2C)=C(/C=C(\Cl)[N+](=O)[O-])[N+](=O)[O-])c(C)c1	3.09 µM (inactive)	17.7 µM (inactive)	2.21 µM (inactive)	1.46 µM (inactive)	4.37 µM (inactive)	4.36 µM (inactive)	2.34 µM (inactive)	18.2 µM (inactive)	8.85 µM (inactive)	6.04 µM (inactive)	5.43 µM (inactive)	1.45 µM (inactive)	2.37 µM (inactive)	18.5 µM (inactive)	3.46 µM (inactive)	15.2 µM (inactive)	4.53 µM (inactive)	2.18 µM (inactive)	12.9 µM (inactive)	6.71 µM (inactive)
COC(=O)c1ccc(NCC2=CC(=O)c3ccccc3C2=O)cc1	5.81 µM (inactive)	16.2 µM (inactive)	17.8 µM (inactive)	3.44 µM (inactive)	22.2 µM (inactive)	21.6 µM (inactive)	17.5 µM (inactive)	24.2 µM (inactive)	23.4 µM (inactive)	12.2 µM (inactive)	25.7 µM (inactive)	2.77 µM (inactive)	13.2 µM (inactive)	16.5 µM (inactive)	20 µM (inactive)	21.1 µM (inactive)	21.8 µM (inactive)	13.3 µM (inactive)	31.4 µM (inactive)	28.6 µM (inactive)
COc1ccc2c(c1)/c(=C/C#N)c1c3ccccc3[n+](C)n21	5.21 µM (inactive)	5.73 µM (inactive)	6.87 µM (inactive)	8.69 µM (inactive)	6.9 µM (inactive)	8.63 µM (inactive)	5.58 µM (inactive)	1.7 µM (inactive)	0.767 µM (active)	7.62 µM (inactive)	2.24 µM (inactive)	1.16 µM (inactive)	4.33 µM (inactive)	1.71 µM (inactive)	9.08 µM (inactive)	2.69 µM (inactive)	7 µM (inactive)	2.34 µM (inactive)	7.16 µM (inactive)	8.55 µM (inactive)
C1=N\c2ccc(cc2)-c2ccc(cc2)/N=C\c2ccccc2OCc2cccc(n2)COc2ccccc2/1	> 82.8 µM (inactive)	5.27 µM (inactive)	36.4 µM (inactive)	> 100 µM (inactive)	26.6 µM (inactive)	> 63.5 µM (inactive)	84.9 µM (inactive)	65.9 µM (inactive)	26.7 µM (inactive)	40.6 µM (inactive)	> 100 µM (inactive)	10.9 µM (inactive)	23.8 µM (inactive)	> 80.5 µM (inactive)	32.7 µM (inactive)	36.4 µM (inactive)	> 81.3 µM (inactive)	> 100 µM (inactive)	13.9 µM (inactive)	13.1 µM (inactive)
CC(C)(C)OCC1NC(=O)[C@@H]2Cc3c([nH]c4ccccc34)C(c3ccccc3)N2C1=O (stereo not given in full)	> 50 µM (inactive)	> 50 µM (inactive)	> 50 µM (inactive)	> 30.1 µM (inactive)	> 50 µM (inactive)	> 50 µM (inactive)	> 50 µM (inactive)	> 50 µM (inactive)	30.1 µM (inactive)	> 50 µM (inactive)	> 50 µM (inactive)	> 50 µM (inactive)	> 50 µM (inactive)	> 50 µM (inactive)	> 50 µM (inactive)	> 50 µM (inactive)	> 50 µM (inactive)	> 50 µM (inactive)	> 50 µM (inactive)	> 50 µM (inactive)
O=C(O)CC1OCC=C2C[N+]3([O-])CCC45c6ccccc6NC4C1C2CC53 (stereo not given)	> 100 µM (inactive)	> 100 µM (inactive)	> 100 µM (inactive)	> 100 µM (inactive)	> 100 µM (inactive)	> 100 µM (inactive)	> 100 µM (inactive)	> 100 µM (inactive)	> 100 µM (inactive)	> 100 µM (inactive)	> 100 µM (inactive)	> 100 µM (inactive)	> 100 µM (inactive)	> 100 µM (inactive)	> 100 µM (inactive)	> 100 µM (inactive)	> 100 µM (inactive)	> 100 µM (inactive)	> 100 µM (inactive)	> 100 µM (inactive)

From ChEMBL document CHEMBL1201862, “PubChem BioAssay data set” (2004)
